Like-named read-outs stand apart in the source and are kept apart here.

The text below walks through data of patent publication US12692261B2, “Substituted heterocyclic compounds and therapeutic uses thereof” (Bayer Aktiengesellschaft, priority 2020, dated 2026).

Assay [1] deals with T1, wild-type Epidermal Growth Factor Receptor (EGFR) (Homo sapiens, UniProt P00533).
T1 construct: a fragment of human EGFR (amino acids R669 to A1210); made in house; host or cells: Sf9 insect cells
The assay is described as follows: WT-EGFR Kinase Assay (TR-FRET, 2 mM ATP). In kind it is biochemical. The method in brief:
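GST-fused human EGFR fragment (R669-A1210) from Sf9 cells, typically 7.6 pg/μL, pre-incubated with compound 15 min at 22° C in Hepes pH 7.0 buffer with MgCl2, DTT and vanadate; biotinylated peptide substrate. After EDTA stop, phosphopeptide detected by TR-FRET (anti-phosphotyrosine Tb-cryptate/streptavidin-XL665), 665/620 nm emission ratio.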

The target in assay [2] is T2, full-length human CSNK1A1 (Homo sapiens, UniProt P48729).
T2 construct: N-terminal Glutathion-S-Transferase (GST) and full-length human CSNK1A1; purchased Life Technologies PV4174; host or cells: baculovirus infected insect cells
T2 sequence (P48729 whole entry): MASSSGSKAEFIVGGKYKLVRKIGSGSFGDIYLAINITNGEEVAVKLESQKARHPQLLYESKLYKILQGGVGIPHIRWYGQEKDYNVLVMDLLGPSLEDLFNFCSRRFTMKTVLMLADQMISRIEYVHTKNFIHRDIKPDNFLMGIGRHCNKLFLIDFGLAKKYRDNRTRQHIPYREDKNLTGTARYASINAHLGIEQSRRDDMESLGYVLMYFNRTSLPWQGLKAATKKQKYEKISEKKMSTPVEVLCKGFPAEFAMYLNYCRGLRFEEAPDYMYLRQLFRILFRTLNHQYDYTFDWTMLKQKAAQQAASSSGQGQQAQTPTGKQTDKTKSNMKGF
The assay is described as follows: CSNK1A1 Assay 2 (ADP-Glo, 1 μM ATP, substrate biotin-Ahx-KRRRAL-pS-VASLPGL). Format: biochemical. As to conditions: Table 3, read-out: CSNK1A1 Assay 2 IC50 [mol/l] (median). Put shortly:
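Activity read as ADP generated (ADP-Glo luciferase luminescence, 1 h detection steps at 22 °C). Enzyme was insect-cell-expressed GST–full-length human CSNK1A1, compound-preincubated 15 min before reaction with phosphopeptide substrate and 1 μM ATP in 50 mM HEPES pH 7.5, 10 mM MgCl2.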

Where [3] appears, read: read-out: EGFR Wildtyp 2 mM ATP IC50 [mol/l] (median), Table 4.
Setting [4] is: EGFR Wildtyp 2 mM ATP IC50 [mol/l] (median), Table 4.

T1 sequence (P00533 669-1210): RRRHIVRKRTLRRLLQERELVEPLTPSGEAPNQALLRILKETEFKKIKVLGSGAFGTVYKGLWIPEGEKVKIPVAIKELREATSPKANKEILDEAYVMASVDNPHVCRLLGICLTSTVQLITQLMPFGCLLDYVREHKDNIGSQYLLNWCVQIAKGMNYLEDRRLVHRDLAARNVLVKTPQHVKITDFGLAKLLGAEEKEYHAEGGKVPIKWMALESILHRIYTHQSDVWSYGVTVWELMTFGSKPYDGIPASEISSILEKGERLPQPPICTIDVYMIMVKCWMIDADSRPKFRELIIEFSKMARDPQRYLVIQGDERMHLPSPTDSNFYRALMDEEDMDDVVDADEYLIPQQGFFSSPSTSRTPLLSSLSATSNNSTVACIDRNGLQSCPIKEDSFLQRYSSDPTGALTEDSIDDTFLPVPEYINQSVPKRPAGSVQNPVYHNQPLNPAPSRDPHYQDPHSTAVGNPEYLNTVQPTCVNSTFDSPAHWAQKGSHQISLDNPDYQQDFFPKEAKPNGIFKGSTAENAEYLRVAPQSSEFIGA

Turning to `O=C(Nc1cc(-c2[nH]c3c(O[C@H]4CCOC4)ncnc3c2-c2ccccn2)ccn1)C(CC(F)F)c1ccc(F)cc1` (single isomer, unassigned) [Example 74, (2R or S)-4,4-difluoro-2-(4-fluorophenyl)-N-{4-[4-{[(3S)-oxolan-3-yl]oxy}-7-(pyridin-2-yl)-5H-pyrrolo[3,2-d]pyrimidin-6-yl]pyridin-2-yl}butanamide], the IC50 in assay [1] (setting [3]) was more than 20 µM; in assay [2] it was 0.0358 µM.

As to `O=C(Nc1cc(-c2[nH]c3c(OC[C@@H]4COCCO4)cc(F)nc3c2-c2ccccn2)ccn1)C(CC(F)F)c1ccc(F)cc1` (mixture of isomers) [Example 57, (2RS)—N-(4-{7-[(2S)-1,4-dioxan-2-ylmethoxy]-5-fluoro-3-(pyridin-2-yl)-1H-pyrrolo[3,2-b]pyridin-2-yl}pyridin-2-yl)-4,4-difluoro-2-(4-fluorophenyl)butanamide], the IC50 in assay [1] (setting [4]) was more than 20 µM; in assay [2], 0.00789 µM.

Consider `O=C(Nc1cc(-c2[nH]c3nc(F)cnc3c2-c2ccccn2)ccn1)C(CC(F)F)c1ccc(F)cc1` (racemic) [Example 60, (2RS)-4,4-difluoro-2-(4-fluorophenyl)-N-{4-[3-fluoro-7-(pyridin-2-yl)-5H-pyrrolo[2,3-b]pyrazin-6-yl]pyridin-2-yl}butanamide], for which the IC50 was more than 20 µM in assay [1] (setting [4]) and 0.00581 µM in assay [2].

For the compound `O=C(Nc1cc(-c2[nH]c3cc(Cl)cnc3c2-c2ccccn2)ccn1)C(CC(F)F)c1ccc(F)cc1` (single isomer, unassigned) [Example 89, (−)—N-{4-[6-chloro-3-(pyridin-2-yl)-1H-pyrrolo[3,2-b]pyridin-2-yl]pyridin-2-yl}-4,4-difluoro-2-(4-fluorophenyl)butanamide], the figures for the IC50 in assay [1] (setting [3]) and in assay [2] were more than 20 µM and 0.089 µM, respectively.

`O=C(Nc1cc(-c2[nH]c3ccnnc3c2-c2ccccn2)ccn1)C(CC(F)F)c1ccc(F)cc1` (racemic) [Example 65, (2RS)-4,4-difluoro-2-(4-fluorophenyl)-N-{4-[7-(pyridin-2-yl)-5H-pyrrolo[3,2-c]pyridazin-6-yl]pyridin-2-yl}butanamide]: the IC50 is more than 20 µM in assay [1] (setting [4]) and 0.00275 µM in assay [2].

Regarding `O=C(Nc1cc(-c2[nH]c3c(O[C@H]4CCOC4)cc(F)nc3c2-c2ccccn2)ccn1)C(CC(F)F)c1ccc(F)cc1` (single isomer, unassigned) [Example 54, (2R or S)-4,4-difluoro-N-{4-[5-fluoro-7-{[(3S)-oxolan-3-yl]oxy}-3-(pyridin-2-yl)-1H-pyrrolo[3,2-b]pyridin-2-yl]pyridin-2-yl}-2-(4-fluorophenyl)butanamide], the IC50 was more than 20 µM in assay [1] (setting [4]) and 0.00422 µM in assay [2].

Regarding `O=C(Nc1cc(-c2[nH]c3c(OC[C@H]4COCCO4)cc(F)nc3c2-c2ccccn2)ccn1)C(CC(F)F)c1ccc(F)cc1` (single isomer, unassigned) [Example 52, (2R or S)—N-{4-[7-{[(2R)-1,4-dioxan-2-yl]methoxy}-5-fluoro-3-(pyridin-2-yl)-1H-pyrrolo[3,2-b]pyridin-2-yl]pyridin-2-yl}-4,4-difluoro-2-(4-fluorophenyl)butanamide], the IC50 in assay [1] (setting [3]) was more than 20 µM; in assay [2], 0.0172 µM.

Take `O=C(Nc1cc(-c2[nH]c3ccc(Cl)nc3c2-c2ccccn2)ccn1)C(CC(F)F)c1ccc(F)cc1` (racemic) [Example 70, (2RS)—N-{4-[5-chloro-3-(pyridin-2-yl)-1H-pyrrolo[3,2-b]pyridin-2-yl]pyridin-2-yl}-4,4-difluoro-2-(4-fluorophenyl)butanamide]: the results for the IC50 in assay [1] (setting [4]) and in assay [2] were more than 20 µM and 0.00543 µM, respectively.

For `O=C(Nc1cc(-c2[nH]c3c(O[C@H]4CCOC4)cc(F)nc3c2-c2ccccn2)ccn1)C(CC(F)F)c1ccc(F)cc1` (mixture of isomers) [Example 53, (2RS)-4,4-difluoro-N-{4-[5-fluoro-7-{[(3S)-oxolan-3-yl]oxy}-3-(pyridin-2-yl)-1H-pyrrolo[3,2-b]pyridin-2-yl]pyridin-2-yl}-2-(4-fluorophenyl)butanamide], the IC50 was more than 20 µM in assay [1] (setting [4]) and 0.006 µM in assay [2].

Regarding `O=C(Nc1cc(-c2[nH]c3ncc(F)nc3c2-c2ccccn2)ccn1)C(CC(F)F)c1ccc(F)cc1` (racemic) [Example 62, (2RS)-4,4-difluoro-2-(4-fluorophenyl)-N-{4-[2-fluoro-7-(pyridin-2-yl)-5H-pyrrolo[2,3-b]pyrazin-6-yl]pyridin-2-yl}butanamide], the figures for the IC50 in assay [1] (setting [4]) and in assay [2] were more than 20 µM and 0.00392 µM, respectively.

For `O=C(Nc1cc(-c2[nH]c3c(N4CCNCC4)ccnc3c2-c2ccccn2)ccn1)C(CC(F)F)c1ccc(F)cc1` (racemic) [Example 92, (2RS)-4,4-difluoro-2-(4-fluorophenyl)-N-{4-[7-(piperazin-1-yl)-3-(pyridin-2-yl)-1H-pyrrolo[3,2-b]pyridin-2-yl]pyridin-2-yl}butanamide], the IC50 in assay [1] (setting [4]) was more than 20 µM; in assay [2], 0.00235 µM.

`O=C(Nc1cc(-c2[nH]c3cc(F)cnc3c2-c2ccccn2)ccn1)C(CO)c1ccc(F)cc1` (racemic) [Example 71, (2RS)—N-(4-(6-fluoro-3-(pyridin-2-yl)-1H-pyrrolo[3,2-b]pyridin-2-yl)pyridin-2-yl)-2-(4-fluorophenyl)-3-hydroxypropanamide]: the IC50 in assay [1] (setting [4]) is more than 20 µM; in assay [2], 0.00821 µM.

Turning to `Cc1cnc2c(-c3ccccn3)c(-c3ccnc(NC(=O)C(CC(F)F)c4ccc(F)cc4)c3)[nH]c2n1` (single isomer, unassigned; (+)) [Example 86, (+)-4,4-difluoro-2-(4-fluorophenyl)-N-{4-[3-methyl-7-(pyridin-2-yl)-5H-pyrrolo[2,3-b]pyrazin-6-yl]pyridin-2-yl}butanamide], the IC50 in assay [1] (setting [4]) is more than 20 µM; in assay [2], 0.00289 µM.

In the case of `O=C(Nc1cc(-c2[nH]c3c(OCC4CCCO4)cc(F)nc3c2-c2ccccn2)ccn1)C(CC(F)F)c1ccc(F)cc1` (racemic) [Example 61, (2RS)-4,4-difluoro-N-{4-[5-fluoro-7-{[(2RS)-oxolan-2-yl]methoxy}-3-(pyridin-2-yl)-1H-pyrrolo[3,2-b]pyridin-2-yl]pyridin-2-yl}-2-(4-fluorophenyl)butanamide], the IC50 in assay [1] (setting [4]) is more than 20 µM; in assay [2], 0.0111 µM.

Take `O=C(Nc1cc(-c2[nH]c3ccnnc3c2-c2ccccn2)ccn1)C(CC(F)F)c1ccc(F)cc1` (single isomer, unassigned) [Example 66, (2R or 2S)-4,4-difluoro-2-(4-fluorophenyl)-N-{4-[7-(pyridin-2-yl)-5H-pyrrolo[3,2-c]pyridazin-6-yl]pyridin-2-yl}butanamide]: the figures for the IC50 in assay [1] (setting [4]) and in assay [2] were more than 20 µM and 0.00243 µM, respectively.

Consider `O=C(Nc1cc(-c2[nH]c3c(OCC(F)F)ncnc3c2-c2ccccn2)ccn1)C(CC(F)F)c1ccc(F)cc1` (single isomer, unassigned) [Example 80, (2R or S)—N-{4-[4-(2,2-difluoroethoxy)-7-(pyridin-2-yl)-5H-pyrrolo[3,2-d]pyrimidin-6-yl]pyridin-2-yl}-4,4-difluoro-2-(4-fluorophenyl)butanamide], for which the results for the IC50 in assay [1] (setting [3]) and in assay [2] were more than 20 µM and 0.0169 µM, respectively.

Consider `Cc1cnc2c(-c3ccccn3)c(-c3ccnc(NC(=O)C(CC(F)F)c4ccc(F)cc4)c3)[nH]c2n1` (stereo not shown) [Example 85, 4,4-difluoro-2-(4-fluorophenyl)-N-{4-[3-methyl-7-(pyridin-2-yl)-5H-pyrrolo[2,3-b]pyrazin-6-yl]pyridin-2-yl}butanamide], for which the IC50 in assay [1] (setting [4]) was more than 20 µM; in assay [2], 0.00421 µM.
